In patent publication US20260250318A1, “COMPOSITIONS AND METHODS FOR CROSSING THE BLOOD BRAIN BARRIER” (VOYAGER THERAPEUTICS, INC., priority 2022, published 2026):

Columns and labels:
Settings in all cases: synthetic library passage 3, intravenous, relative to wild-type AAV9
[1] = test system: brain; assay: NGS fold enrichment of synthetic library (passage 3) in BALB/c mice, first cross-species screen; type: in vivo
How it was run: (§1)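 Synthetic capsid library (passage 3) was given intravenously […] to NHPs aged 2-4 years and to BALB/c and C57Bl/6 mice (n=3 each, 6-8 weeks). After about 28 days in vivo, tissue RNA was RT-PCR amplified and NGS-sequenced; values are fold enrichment per variant relative to wild-type AAV9.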

[2] = test system: brain; assay: NGS fold enrichment of synthetic library (passage 3) in C57Bl/6 mice, first cross-species screen; type: in vivo
How it was run: as §1

[3] = test system: brain, spinal cord, and DRG of the NHPs; assay: NGS fold enrichment of synthetic library (passage 3) in NHPs, first cross-species screen; type: in vivo, cynomolgus macaques (Macaca fascicularis)
How it was run: as §1

[4] = RNA from brain of BALB/c mice, NGS
[5] = RNA from brain of C57Bl/6 mice, NGS
[6] = RNA from spinal cord of NHPs, NGS

Sequence | Fold enrichment over AAV9 in the brain of Mice (BALB/c) [1, 4] | Fold enrichment over AAV9 in the brain of Mice (C57Bl/6) [2, 5] | Fold enrichment over AAV9 in the brain of NHPs ([3]; RNA from brain of NHPs, NGS) | Fold enrichment over AAV9 in the spinal cord of NHPs [3, 6] | Fold enrichment over AAV9 in the brain of Mice (BALB/c) ([1]; RNA NGS, brain of BALB/c mice) | Fold enrichment over AAV9 in the brain of Mice (C57Bl/6) ([2]; RNA NGS, brain of C57Bl/6 mice) | Fold enrichment over AAV9 in the brain of NHPs ([3]; RNA NGS, brain of NHPs) | Fold enrichment over AAV9 in the spinal cord of NHPs ([3]; RNA NGS, spinal cord of NHPs)
GNRDRPSSGQNQQT | 0.178 fold | 0.298 fold | 1.239 fold | 3.947 fold |  |  |  | 
GNSMERTSGQNQQT |  |  |  |  | 0.935 fold | 1.047 fold | 2.221 fold | 4.177 fold
GNSQVKVSGQNQQT | 0.728 fold | 1.422 fold | 1.158 fold | 4.930 fold |  |  |  | 
GNSSMMGSGQNQQT | 0.364 fold | 0.656 fold | 1.239 fold | 3.856 fold |  |  |  | 
GNVTTQKSGQNQQT |  |  |  |  | 0.922 fold | 1.215 fold | 1.122 fold | 2.546 fold
GNYLHQASGQNQQT |  |  |  |  | 0.181 fold | 0.816 fold | 1.635 fold | 1.454 fold
GPAQHGTSGQNQQT | 0.615 fold | 1.030 fold | 1.407 fold | 0.866 fold |  |  |  | 
GPASLPISGQNQQT | 0.155 fold | 0.312 fold | 1.386 fold | 9.008 fold |  |  |  | 
GPDRIGSSGQNQQT | 0.342 fold | 0.654 fold | 1.308 fold | 0.426 fold |  |  |  | 
GPFGMPSSGQNQQT |  |  |  |  | 0.560 fold | 0.727 fold | 2.260 fold | 2.700 fold
GPGLGSHSGQNQQT |  |  |  |  | 1.195 fold | 0.880 fold | 1.906 fold | 14.563 fold
GPGLPNHSGQNQQT |  |  |  |  | 0.659 fold | 1.197 fold | 2.486 fold | 1.992 fold
GPGLSGHSGQNQQT |  |  |  |  | 1.297 fold | 1.154 fold | 1.571 fold | 1.603 fold
GPGSAHSSGQNQQT |  |  |  |  | 0.872 fold | 1.099 fold | 1.785 fold | 4.392 fold
GPLVNASSGQNQQT |  |  |  |  | 0.343 fold | 0.831 fold | 1.434 fold | 5.239 fold
GPNSYPVSGQKQQT | 0.834 fold | 0.736 fold | 1.381 fold | 4.040 fold |  |  |  | 
GPPQHMTSGQNQQT |  |  |  |  | 0.677 fold | 0.509 fold | 1.457 fold | 1.547 fold
GPRLSDQSGQNQQT |  |  |  |  | 0.579 fold | 0.640 fold | 1.511 fold | 0.364 fold
GPTNGRSSGQNQQT |  |  |  |  | 1.308 fold | 0.936 fold | 2.034 fold | 8.903 fold
GQIVQNPSGQNQQT |  |  |  |  | 0.635 fold | 1.446 fold | 3.133 fold | 0.406 fold

Sequence | Fold enrichment over AAV9 in the brain of Mice (BALB/c) [1, 4] | Fold enrichment over AAV9 in the brain of Mice (C57Bl/6) [2, 5] | Fold enrichment over AAV9 in the brain of NHPs ([3]; RNA from brain of NHPs, NGS) | Fold enrichment over AAV9 in the spinal cord of NHPs [3, 6] | Fold enrichment over AAV9 in the brain of Mice (BALB/c) ([1]; RNA NGS, brain of BALB/c mice) | Fold enrichment over AAV9 in the brain of Mice (C57Bl/6) ([2]; RNA NGS, brain of C57Bl/6 mice) | Fold enrichment over AAV9 in the brain of NHPs ([3]; RNA NGS, brain of NHPs) | Fold enrichment over AAV9 in the spinal cord of NHPs ([3]; RNA NGS, spinal cord of NHPs)
GQLGSVGSGQDQQT | 0.437 fold | 1.020 fold | 1.196 fold | 0.000 fold |  |  |  | 
GQLVTFTSGQNQQT | 0.294 fold | 0.819 fold | 1.331 fold | 11.282 fold |  |  |  | 
GRAPTNLSGQNQQT |  |  |  |  | 0.169 fold | 0.757 fold | 1.118 fold | 0.687 fold
GRAVMDHSGQNQQT |  |  |  |  | 0.283 fold | 0.728 fold | 2.408 fold | 3.209 fold
GREYGHKSGQNQQT |  |  |  |  | 0.959 fold | 1.422 fold | 3.453 fold | 0.000 fold
GRGAVMASGQNQQT |  |  |  |  | 0.605 fold | 0.783 fold | 1.072 fold | 0.923 fold
GRGGIPQSGQNQQT |  |  |  |  | 1.181 fold | 1.639 fold | 2.352 fold | 8.683 fold
GRGGSMAETQNQQT |  |  |  |  | 0.669 fold | 0.799 fold | 1.024 fold | 2.853 fold
GRGPKQSNIQNQQT | 2.490 fold | 0.771 fold | 1.125 fold | 0.737 fold |  |  |  | 
GRGQHVSVANNQQT | 0.589 fold | 1.032 fold | 1.152 fold | 1.896 fold |  |  |  | 
GRGQIYSTGGNQQT |  |  |  |  | 0.743 fold | 1.329 fold | 2.210 fold | 11.629 fold
GRGQNQQHTGLATT |  |  |  |  | 0.691 fold | 1.134 fold | 1.650 fold | 6.174 fold
GRGQNVSSVHRQQT |  |  |  |  | 0.691 fold | 1.206 fold | 5.404 fold | 0.000 fold
GRGQVVSTHQNQQT |  |  |  |  | 0.561 fold | 0.931 fold | 1.607 fold | 3.318 fold
GRGVITSSGQNHQT |  |  |  |  | 0.669 fold | 1.656 fold | 2.004 fold | 0.864 fold
GRGVQQKLQQNQQT |  |  |  |  | 0.823 fold | 1.974 fold | 1.817 fold | 0.000 fold
GRHLVTASGQNQQT |  |  |  |  | 0.404 fold | 0.648 fold | 1.411 fold | 2.885 fold
GRLSNAHGGQNQQT | 0.725 fold | 1.036 fold | 1.245 fold | 0.839 fold |  |  |  | 
GRMFSLGSGQNQQT |  |  |  |  | 1.174 fold | 1.630 fold | 1.836 fold | 8.429 fold
GRTDSHTSGQNQQT |  |  |  |  | 0.704 fold | 1.299 fold | 2.913 fold | 1.510 fold
